In patent US20250382556A1, “MODULATION OF THE BRANCHED-CHAIN METABOLITE CONTENT OF FRUITS AND VEGETABLES” (BOARD OF TRUSTEES OF MICHIGAN STATE UNIVERSITY, priority 2024, published 2025):

Tested on: apple fruit
Assay: Headspace volatile ester emissions of ripening apple fruit treated with AHAS inhibitor
Assay type: in vivo, Malus x domestica Borkh.
Design: key to butyl acetate emissions compared to control / hexyl acetate emissions compared to control / ethyl acetate emissions compared to control / propyl acetate emissions compared to control: —: Dash indicates no significant difference between treatments
Conditions: for 2-methylbutyl acetate (ile) emissions compared to control / 2-methylpropyl acetate (val) emissions compared to control / butyl acetate emissions compared to control / ethyl acetate emissions compared to control / hexyl acetate emissions compared to control / pentyl acetate emissions compared to control / propyl acetate emissions compared to control / sum of anteiso- and iso-branched-chain esters emissions compared to control: 1 mM daily
Protocol: Whole apple fruit, freshly harvested and at an early stage of ripening (‘ripening’), were held at room temperature (22° C.) and rubbed daily with 3 mL of a freshly made 1mM solution of the inhibitor rimsulfuron (N-((4,6-dimethoxypyrimidin-2-yl)aminocarbonyl)-3-(ethylsulfonyl)-2-pyridinesulfonamide, made from DuPont MATRIX® SG, 25% w/w active ingredient; 0.1% Tween 20) or water solution containing 0.1% Tween 20 before preparation with further treatments. Flowering quince fruit were smaller than the apple fruit and had 2 mL of the control and treatment solutions applied daily at 22° C. ‘Gala’, ‘Empire’, and ‘Jonagold’ apple fruit were treated for four, nine, and seven days before further preparation, respectively. Flowering quince fruit were treated for six days before analysis. Headspace volatile emissions were monitored for three or four representative fruits during the incubation/treatment period to determine appropriate times for further treatments. During method testing, 1 mM solutions of the imidazolinone imazamox was also assessed with apple fruit (2-[4,5-dihydro-4-methyl-4-(1-methylethyl)-5-oxo-1H-imidazol-2-yl]-5-(methoxymethyl)-3-pyridinecarboxylic acid, made from RAPTOR®, 12.1% w/w active ingredient; 0.1% Tween 20).
Headspace volatiles from small tissue samples incubated in 22 mL vials were adsorbed for 30 s using a solid-phase micro extraction (SPME) fiber (65 μm PDMS-DVB; Supelco Analytical). The SPME fiber was then directly desorbed for 1 min in the injection port of a gas chromatograph (GC; HP-6890, Hewlett-Packard) coupled to a time-of-flight mass spectrometer (MS; Pegasus II, LECO). Whole fruits and banana slices were incubated for 20 min at room temperature (22° C.) in 1-L sealed Teflon jars before a 15-s, or 3-min adsorption and 1- or 2-min desorption. Adsorption times were adjusted to ensure instrument responses were in the linear range. All desorbed volatiles were cryofocused at the beginning of the column by immersing said region of the column in liquid nitrogen. After the desorption period, the run was initiated and the liquid nitrogen removed.
The conditions of the system were as follows. Injection port: 200° C., splitless, ultra-purified helium (99.999%) carrier gas, front inlet flow 1.5 mL·min^−1 constant, 10 mL·min^−1 purge flow, 11.5 mL·min^−1 total flow. Oven: initial temperature 40° C. for 0 min, ramped by 43° C.·min^−1 to 185° C. for 0 min. Column: HP-5 MS, 30 m×0.25 mm i.d., 0.25 μm film thickness (Agilent). Transfer line temperature 225° C. MS: Electron ionization (−70 eV), ion source temperature 200° C., solvent delay 50 sec, m/z range 29 to 400, detector voltage 1500 V, data collection rate 20 Hz.
Compounds were identified by comparison of the retention time and mass spectrum against authenticated reference standards and spectra (National Institute of Standards and Technology Mass Spectral Search Program Version 2.0, 2001). Volatiles were quantified by calibration with a standard of 59 authenticated, high-purity compounds (Sigma-Aldrich Co. and Fluka Chemical) including the target compounds. The standard was made by placing 0.5 μL of an equal-part mixture of the neat compounds onto a disc of filter paper before quickly placing the filter paper into a 4-L sealed flask fitted with a Mininert valve (for SPME fiber access, and allowed to vaporize for at least 6 hours. SPME adsorption and desorption times of the standard matched that of the samples quantified (e.g., 30-s adsorption, 1 min desorption when quantifying samples in 22-mL vials).
Statistical analysis was performed using SciPy (v1.6.2), RStudio (v2023.03.0+386), or Microsoft Excel (v16.89). Against a specified value: one-tailed t-test Against two treatments: paired t-test for banana, two-sample t-test for apple and flowering quince. Against more than two treatments: Tukey's test following significant ANOVA. Analyses of branched-chain amino acids were one-tailed, all other metabolites were two-tailed. […]

[1] = ripening Empire apple peel, nine days
[2] = ripening Gala apple peel, four days
[3] = ripening Jonagold apple peel, seven days

CCS(=O)(=O)c1cccnc1S(=O)(=O)NC(=O)Nc1nc(OC)cc(OC)n1 [rimsulfuron, N-((4,6-dimethoxypyrimidin-2-yl)aminocarbonyl)-3-(ethylsulfonyl)-2-pyridinesulfonamide]
concentration of pentyl acetate, more abundant when treated (all three cultivars (Gala, Empire, Jonagold), on average): 1.63 fold | 2-methylbutyl acetate (ile) emissions compared to control [1]: 1.9 ± 0.6% | 2-methylpropyl acetate (val) emissions compared to control [1]: 27.3 ± 5.4% | butyl acetate emissions compared to control [1]: — | ethyl acetate emissions compared to control [1]: 61.4 ± 7.9% | hexyl acetate emissions compared to control [1]: — | pentyl acetate emissions compared to control [1]: 161.9 ± 16.0% | propyl acetate emissions compared to control [1]: 53.8 ± 8.5% | sum of anteiso- and iso-branched-chain esters emissions compared to control [1]: 0.8 ± 0.2% | 2-methylbutyl acetate (ile) emissions compared to control [2]: 27.0 ± 6.3% | 2-methylpropyl acetate (val) emissions compared to control [2]: 36.4 ± 5.0% | butyl acetate emissions compared to control [2]: — | ethyl acetate emissions compared to control [2]: 57.7 ± 9.3% | hexyl acetate emissions compared to control [2]: — | pentyl acetate emissions compared to control [2]: 155.3 ± 17.5% | propyl acetate emissions compared to control [2]: — | sum of anteiso- and iso-branched-chain esters emissions compared to control [2]: 19.0 ± 4.5% | effect on butyl acetate (ripening Gala, Empire and Jonagold): no discernible effect | reduction of the total content of anteiso-branched-chain esters in the headspaces (ripening Gala, Empire and Jonagold apple fruits, on average): 91.2% | 2-methylpropyl acetate in headspace following treatment (ripening Gala, Empire and Jonagold, all three cultivars): reduced | 2-methylbutyl acetate (ile) emissions compared to control [3]: 16.1 ± 1.4% | 2-methylpropyl acetate (val) emissions compared to control [3]: 67.6 ± 4.1% | butyl acetate emissions compared to control [3]: — | ethyl acetate emissions compared to control [3]: — | hexyl acetate emissions compared to control [3]: 162.7 ± 19.2% | pentyl acetate emissions compared to control [3]: 172.3 ± 20.2% | propyl acetate emissions compared to control [3]: — | sum of anteiso- and iso-branched-chain esters emissions compared to control [3]: 6.5 ± 0.5%
